Laboratory results: patent US7943606B2, “Compositions and methods to control abnormal cell growth” (CanCure Laboratories, LLC, priority 2005, dated 2011)
Where a name gives a salt, the structure may show the parent alone. Read-outs that look alike come from different tables or passages of the source.

Tests used:
[1] = test system: CaOV-3 cells; test: Viability of CaOV-3 ovarian cancer cells (MTT assay); type: cell-based, human; conditions: for inhibition at 100 µM / IC50: Homo sapiens, Caov-3, 72 hours; for inhibition at 100 µM: read-out: Decrease in cell number (maximal decrease = 100%), CaOV-3
Procedure: (§1) To quantify cell death, around the time when significant and characteristic morphological changes took place, cells were pulse-labeled for 10 minutes with [^3H]thymidine to measure DNA activity as described elsewhere [Tomono, M. and Kiss, Z. (1995), “Ethanol enhances the stimulatory effects of insulin and insulin-like growth factor-I on DNA synthesis in NIH 3T3 fibroblasts,” Biochem. Biophys. Res. Commun. 208, 63-67]. Also, cells were collected as suspensions using trypsin, an established method in cell biology, followed by re-plating of cells in fresh tissue culture medium. If no viable cells were obtained after one week in culture, it meant that the cells at the time of re-plating were dead. Survival values obtained with untreated cells were considered 100%. For the determination of relative number of viable cells after treatments, in most cases the MTT assay was used. This calorimetric assay is based on the ability of living cells, but not dead cells, to reduce 3-(4,5-dimethyl thiazol-2-yl)-2,5-diphenyltetrazolium bromide [Carmichael, J, De Graff, W. G., Gazdar, A. F., Minna, J. D. and Mitchell, J. B. (1987), “Evaluation of tetrazolium-based semi-automated calorimetric assay: Assessment of chemosensitivity testing,” Cancer Res. 47, 936-942]. For this assay, cells were plated in 96-well plates, and the MTT assay was performed both in untreated and treated cell cultures. The MTT assay also was performed at the start of treatments to allow assessment of proliferation rates in the control and treated cell cultures.
(§2) NIH3T3, T47D, A-431, HT-29, and MEL-28 cells were cultured as indicated earlier. CaOV-3 human ovarian cancer cells were cultured in DMEM containing 10% FBS. ZR-75-1 human estrogen receptor-positive breast cancer cells were maintained in RPMI 1640 medium supplemented with 10% FBS. HTB-157 human fetal fibroblasts, MEL-24 human malignant melanoma cells, Hep G2 human hepatoblastoma cells, and CaCO-2 human colon adenocarcinoma cells were maintained in Eagles's MEM containing 10% FBS. MB-231 human estrogen receptor-negative breast cancer cells were maintained in Leibovitz's L-15 medium supplemented with 10% FBS. Cells were seeded into 96-well plates and treated at ˜70-90% confluency. Two hours prior to treatments the medium was changed for fresh 10% serum medium, and then the cells were incubated for 10 days in the absence (□) or presence of 50 μM CCDTHT ? or 100 μM CCDTHT (▪). The medium was changed and the cells were re-treated on days 3 and 6. The MTT assay was used to determine cell viability on day 10. The data, shown in FIG. 6, are the mean±std. dev. of 8 incubations in one experiment. (The experiment was repeated twice with similar results).
The MRC-5 cell line is derived from normal lung tissue of a […] fetus. MRC-5 cells were maintained and treated in Eagles Medium with Hanks' BSS containing 10% fetal bovine serum. The T47D cells were maintained and treated in RPMI 1640 medium supplemented with 0.2 IU bovine insulin and 10% fetal bovine serum. The CaOV-3 human ovarian cancer cells were cultured in Dulbecco's modified Eagle's medium containing 10% fetal bovine serum. The cells were seeded in 96-well plates either at 10,000 cells per well or 30,000 cells per well to examine the antiproliferative and cytotoxic effects of various CC compounds, respectively. The cells were incubated for 24 hours, then the medium was changed followed by the treatments of cultures 2 hours after the medium change. At this point, cell cultures seeded at 10,000 cells per well and 30,000 cells per well were 25-35% and 80-90% confluent, respectively. Incubations were continued for 72 hours followed by the MTT assay. The data, shown in TABLE 2, indicate the inhibitory concentrations of CC compounds (IC50) required for 50% decrease in the number of viable cells. These numbers are calculated from the mean of 4 incubations in one experiment (the experiment was repeated once with similar results). […]

[2] = test system: NIH 3T3 cells; test: Viability of NIH 3T3 normal fibroblasts (MTT assay); type: cell-based; conditions: 72 hours; for cytotoxicity at 100 µM: Mus musculus, NIH3T3, read-out: Decrease in cell number (maximal decrease = 100%), NIH 3T3
Procedure: as §1
The NIH 3T3 (normal) mouse fibroblast, A431 human epidermoid adenocarcinoma, and MCF-7 human breast cancer cells were cultured in DMEM medium containing 10% FBS. The MEL-28 human melanoma cells were cultured in MEM medium containing 10% FBS. The HT-29 human colon adenocarcinoma cells were cultured in McCoy's 5a medium containing 10% FBS. The A549 human lung carcinoma cells were maintained in Ham's F12K medium containing 10% FBS. Cells were seeded into 96-well plates and treated at ˜70-90% confluency. Two hours before treatments the medium was changed for fresh 10% serum medium, and then the cells were incubated for 72 hours in the presence of 0-200 μM of CCompound1 (●) or CCompound3 (CCDTHT) (▴), as indicated. The MTT assay was used to determine cell viability after treatments. The values, shown in FIGS. 5A-5F and expressed as percent decrease in viability compared to the untreated control cells, are the mean±std. dev. of 8 incubations in one experiment. Similar results were obtained in another experiment.
as §2
NIH 3T3, MEL-28, MEL-24, CaOV-3, ZR-75-1, and T47D cells were cultured as described above. The OVCAR human ovarian cancer cells were cultured in DMEM containing 10% FBS. Cells were seeded into 96-well plates and used at ˜60-80% confluency. […]

[3] = test system: OVCAR cells; test: Viability of OVCAR ovarian cancer cells (MTT assay); type: cell-based; conditions: Homo sapiens, 72 hours, read-out: Decrease in cell number (maximal decrease = 100%), OVCAR
Procedure: as §1
NIH 3T3, MEL-28, MEL-24, CaOV-3, ZR-75-1, and T47D cells were cultured as described above. The OVCAR human ovarian cancer cells were cultured in DMEM containing 10% FBS. Cells were seeded into 96-well plates and used at ˜60-80% confluency. Two hours before treatments the medium was changed for fresh 10% serum medium, and then the cells were incubated for 72 hours in the absence or presence of 100 μM of each of CC compounds as listed in TABLE 3. The inhibitory effects of CC compounds on cell proliferation are expressed as percent decrease compared to untreated cell cultures (the greater the number, the greater the inhibitory effect of the CC compound). […] Also, for the treatment of ovarian cancer and breast cancer, CCDTHT seems to be the best choice (although in this experiment CCompounds21-26 were not tested).

In the case of `CC[N+](C)(CC)CCCOCc1ccc2sc3ccccc3c(=O)c2c1` [CCcompound10, N,N-Diethyl-N-methyl-3-[(9-oxo-9H-thioxanthen-2-yl)methoxy]-propane-1-aminium iodide], the inhibition at 100 µM [1] is reported as 45%, the cytotoxicity at 100 µM [2] is reported as 21% and the inhibition at 100 µM [3] is reported as 38%.

`C[N+](C)(CCCO)Cc1ccc2sc3ccccc3c(=O)c2c1` [CCcompound15, 3-Hydroxy-N,N-dimethyl-N-[(9-oxo-9H-thioxanthen-2-yl)methyl]propane-1-aminium bromide] was tested, and the inhibition at 100 µM [1] was 28%, the cytotoxicity at 100 µM [2] was 11% and the inhibition at 100 µM [3] was 26%.

`CC[N+](CC)(CCO)Cc1ccc2sc3ccccc3c(=O)c2c1` [CCcompound14, 2-Hydroxy-N,N-Diethyl-N-[(9-oxo-9H-thioxanthen-2-yl)methyl]-ethanaminium bromide] showed an inhibition at 100 µM [1] of 69%, a cytotoxicity at 100 µM [2] of 30% and an inhibition at 100 µM [3] of 65%.

Compound `C[N+](C)(CCO)Cc1ccc2sc3ccccc3c(=O)c2c1` [CCcompound13, 2-Hydroxy-N,N-dimethyl-N-[(9-oxo-9H-thioxanthen-2-yl)methyl]-ethanaminium bromide] has an inhibition at 100 µM [1] of 53%, a cytotoxicity at 100 µM [2] of 25% and an inhibition at 100 µM [3] of 27%.

In the case of `CC[NH+](CC)CCCOCc1ccc2sc3ccccc3c(=O)c2c1` [CCcompound12, 2-{[3-(Diethylamino)propoxy]meth-yl}-9H-thioxanthen-9-one hydrochloride], the inhibition at 100 µM [1] is reported as 80%, the cytotoxicity at 100 µM [2] is reported as 0% and the inhibition at 100 µM [3] is reported as 30%.

With `CC[N+](CC)(CCCO)Cc1ccc2sc3ccccc3c(=O)c2c1` [CCcompound16, 3-Hydroxy-N,N-diethyl-N-[(9-oxo-9H-thioxanthen-2-yl)methyl]-propane-1-aminium bromide] the inhibition at 100 µM [1] was 12%, the cytotoxicity at 100 µM [2] was 19% and the inhibition at 100 µM [3] was 0%.

Compound `CC[N+](CC)(CC)CCCOCc1ccc2sc3ccccc3c(=O)c2c1` [CCcompound9, N,N,N-Triethyl-3-[(9-oxo-9H-thioxanthen-2-yl)methoxy]-propane-1-aminium iodide] has an inhibition at 100 µM [1] of 45%, a cytotoxicity at 100 µM [2] of 22% and an inhibition at 100 µM [3] of 41%.

Work on `CC[N+](C)(C)CCCOCc1ccc2sc3ccccc3c(=O)c2c1` [CCcompound11, N,N-Dimethyl-N-ethyl-3-[(9-oxo-9H-thioxanthen-2-yl)methoxy]-propane-1-aminium iodide] yielded an inhibition at 100 µM [1] of 66%, a cytotoxicity at 100 µM [2] of 21% and an inhibition at 100 µM [3] of 62%.

`CC[N+](C)(CC)CCOCc1ccc2sc3ccccc3c(=O)c2c1.[I-]` [CCDTHT, N,N-diethyl-N-methyl-2-[(9-oxo-9H-thioxanthen-2-yl)methoxy]-ethanaminium iodide] was tested, and the “sensitivity to the inhibitory actions, CaOV-3” value ([1]; 50 and 100 μM, 10 days, MTT) was “very sensitive”, the inhibition at 100 µM [1] was 84% and the IC50 ([1]; 10,000 cells per well (25-35% confluent), MTT, read-out: IC50 values, Antiproliferative, CaOV-3) was 38 µM. For the same compound, the IC50 ([1]; 30,000 cells per well (80-90% confluent), MTT, read-out: IC50 values, Cytotoxic, CaOV-3) was 39 µM, the “sensitivity compared with HaCaT cells, NIH 3T3 fibroblasts” value ([2]; 50 and 100 μM, MTT) was “significantly less sensitive” and the cytotoxicity at 100 µM [2] was 29%. The inhibition at 100 µM [3] was 63%.
